The METLIN SMRT retention time set (Domingo-Almenara et al. 2019)

Assay: gradient 5% acetonitrile 3 min, to 50% in 2 min, to 85% in 15 min, held 3 min, 100 µL/min
Conditions: column: Zorbax Extend-C18 2.1 x 50 mm; eluents: water / acetonitrile, 0.1% formic acid
In short: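 Pure standards were run in mixtures of ~100 molecules by HPLC coupled to a quadrupole time-of-flight mass spectrometer. The column was a Zorbax Extend-C18 (2.1 × 50 mm, 1.8 μm) at 100 μL/min, with water and acetonitrile each containing 0.1% formic acid, in positive and negative ionization mode. Dead and dwell volumes were 40 μL and 900 μL. Retention time was taken from computationally picked adduct peaks, each manually inspected, with data collected over 3 months.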

Structure (SMILES)	RP-LC retention time [s]
Cc1cnc(-c2ccccc2)n1CCNS(=O)(=O)c1cccc(F)c1	633
COC(=O)CSc1nnc(-c2sc3ncccc3c2N)n1C1CC1	694
COc1ccc(NC(=O)Nc2cccn3c(C4CCC4)nnc23)c(C)c1	787
O=C(NC1CCCCC1)C1CCN(Cc2cc3ccccc3n2Cc2ccc(Cl)cc2)CC1	853
COc1cccc(-c2noc(Cc3nnc(-c4cccc(Cl)c4)o3)n2)c1OC	1000
Cc1ccnc(N2CCCC(C(=O)NC3CCCCC3)C2)n1 (centres undefined)	709
Cc1ccccc1N1CCN(c2ncc(C(=O)O)c(C)n2)CC1	1040
O=C(NCc1ccc(F)cc1Cl)c1ccc2c(c1)ncn2CCN1CCCC1	598
Cc1ccc(S(=O)(=O)N2CCC(n3cnc4ccc(C)cc4c3=O)CC2)c(C)c1	988
COc1cccc(-c2noc(C3CCCN3C(=O)Nc3ccc(OC)c(OC)c3)n2)c1 (centres undefined)	855
O=C(NCc1cc(F)cc(F)c1)c1ccc(-c2cccs2)nc1	925
CCc1noc2nc(C)nc(N3CCCC(C(=O)NCCN4CCCC4)C3)c12 (centres undefined)	597
O=C(c1cc(S(=O)(=O)N2CCCC(C(=O)N3CCOCC3)C2)c[nH]1)N1CCCC1 (centres undefined)	638
COCCCn1cc(C(=O)Nc2cccc(C)n2)c2nn(-c3ccccc3)c(=O)c-2c1	864
COc1ccc(OC)c(NC(=O)N2CCC3(CC2)N=C(c2ccc(F)cc2)C(=O)N3)c1	838
O=C(NCCN1CCOCC1)c1ccc(Nc2c(-c3ccc(Cl)cc3)nc3cnccn23)cc1	620
Cc1oc(-c2[nH]ncc2C(=O)N2CCCC2)cc1S(=O)(=O)NCc1ccccc1Cl	715
Cc1ccc(N2C(=O)CN(S(=O)(=O)c3ccccc3)CC2(C)C(=O)NC2CCCC2)c(C)c1 (centres undefined)	983
CCc1nc(OCC(=O)NCc2ccc(C)cc2)c2c(C)c(C)oc2n1	999
COc1ccc(OCc2ccc(-c3nc(C#N)c(NCCN(C)C)o3)o2)cc1	676
CCCN(c1ccc(OCC)cc1)c1nc(C(=O)OCC)nc2ccccc12	1120
Cc1ccc(C)c(NC(=O)N2CCCC(C)(C(=O)NCc3ccc(F)cc3)C2)c1 (centres undefined)	963
Cc1noc(C)c1Cc1ccc(C(=O)NCC2Cn3cccc3C(=O)N2C)o1 (centres undefined)	669

Structure (SMILES)	RP-LC retention time [s]
CCNC(=O)N1CC(Oc2ccc(-c3nc(-c4ccccc4)no3)cc2)C1	945
CCN(C(=O)Nc1ccccc1C(=O)OC)c1nc(-c2ccc(C3CCCCC3)cc2)cs1	590
O=C([C@@H]1C[C@H](F)CN1C(=O)c1cccs1)N1CCCCC1	662
CN(CC1CCOCC1)C(=O)Nc1ccccc1Cl	763
COc1ccc(-c2noc(-c3nn(-c4ccc(C)c(C)c4)ccc3=O)n2)cc1	923
COc1ccccc1CNC(=O)Cc1nnc(-c2ccccn2)o1	671
Cc1ccc(OCC(=O)N(Cc2ccc(N(C)C)cc2)Cc2ccco2)cc1	795
O=C(C1CCOC1)N1CCCn2nc(-c3cccs3)cc2C1 (centres undefined)	678
CCCn1cc(CCNC(=O)Nc2ccc(F)c(Cl)c2)c2cccnc21	835
CSc1cccc(N2C(=O)C3N=NN(Cc4nc(-c5ccccc5)no4)C3C2=O)c1 (centres undefined)	992
COc1ccc(Cl)cc1NC(=O)Cn1c(C)ncc(C(=O)NC2CCCC2)c1=O	791
Cc1nc2cc3c(cc2n1CC(=O)Nc1ccc2c(c1)OCCO2)OCCO3	632
CCCOc1nc2ccccc2nc1N1CCCC(C(=O)Nc2ccccc2CC)C1 (centres undefined)	1320
CC(C)n1cnc(S(=O)(=O)N2CCCC(C(=O)Nc3ccc(F)cc3F)C2)c1 (centres undefined)	792
COCCN1CCC2(CC1)CN(Cc1cc(Cl)ccc1F)Cc1ccccc1O2	778
Cc1ccc(-c2nc3cnccn3c2NCCC(=O)N2CCC(N3CCCCC3)CC2)cc1	598
CCOC(=O)C(CC)n1nc2nc(Nc3ccc(C)c(F)c3)cc(C)n2c1=O (centres undefined)	1200
Cc1ccc(-c2nc(-c3ccc4c(c3)oc(=O)n4C(C)C)no2)c(C)c1	761
COc1ccc(NC(=O)NCCc2nc3cccnc3n2-c2ccccc2)cc1OC	657
COCCN1CCn2cc(S(=O)(=O)Nc3ccc(F)cc3F)cc2C1=O	694
Cc1cc(C)cc(N2C(=O)CC(N3CCC(C(N)=O)CC3)C2=O)c1 (centres undefined)	562
CSc1cccc(NC(=O)CC2COc3ccccc3NC2=O)c1 (centres undefined)	742
Clc1ccc2nc(-c3ccc(N4CCOCC4)cc3)c(Nc3ccc4c(c3)OCCO4)n2c1	694

Structure (SMILES)	RP-LC retention time [s]
O=C(NCc1ccc(F)cc1F)C1CCCN(c2ncnc3c2oc2ccccc23)C1 (centres undefined)	762
CCn1cc(-c2nc(C)c(C(=O)Nc3cccc(C)c3)s2)c2cccnc21	971
CCn1cc(C)c(C(=O)O)c1CC(=O)NCCN1CCN(C)CC1	561
O=C(c1ccc(Cl)cc1)N1CCc2cc(CNS(=O)(=O)Cc3ccccc3)ccc21	981
CCN(CC)C(=O)c1ccc2c(c1)N(CC(=O)NC)C(=O)C1CCCCN21 (centres undefined)	684
COc1ccc(CNC2=NCCNC23CCN(S(=O)(=O)c2ccc(C(C)C)cc2)CC3)cc1	814
CCCNc1cc(N2CCC(CCC(=O)Nc3ccc(OC)cc3)CC2)ncn1	682
O=C(NCC(c1ccc2c(c1)OCO2)N1CCN(c2ccccc2F)CC1)c1cnccn1 (centres undefined)	593
CCn1cc(C(=O)NCCC2=CCCCC2)c2nn(-c3ccccc3)c(=O)c-2c1	1020
Cc1nnc2ccc(N3CCC(C(=O)N4CCN(c5cccc(Cl)c5)CC4)CC3)nn12	860
CCCc1nc(C2CC(=O)N(c3ccc(OC)cc3)C2)no1 (centres undefined)	828
COc1ccccc1N1CCN(c2ccc3cc(S(=O)(=O)N4CCCCC4)ccc3n2)CC1	987
O=C(NCc1ccc2c(c1)OCO2)C1CN(c2nc3c(F)cccc3s2)C1	776
Cn1cccc1C(=O)N1C[C@H]2C[C@H](C1)[C@H]1CCCC(=O)N1C2	639
Cc1cc(C)n(-c2ccc(C(=O)NCc3ccc(F)cc3F)cn2)n1	929
Nc1o[nH]c(=O)c1C1CCCCC1	680
Cc1[nH]c(C(=O)N2CCC(CC(=O)NCc3ccccc3F)CC2)c(C)c1C(=O)OC(C)C	1030
CCOC(=O)c1c(C)[nH]c(CCC(=O)NCCN2CCCCC2)c1C	607
CCc1nc(-c2ccc3c(c2)CCN3C(=O)Cc2cccc(F)c2)no1	1030
COc1cccc(C(=O)Nc2cc(-c3cccnc3)no2)c1	730
COc1ccc(S(=O)(=O)N2CCC(C(=O)NCCc3csc(-c4cccs4)n3)CC2)cc1	863
Cc1ccc2c(Nc3ccc(C(C)C)cc3)c(C(=O)N3CCCC(C)C3)cnc2n1 (centres undefined)	737
COc1ccc(-c2noc(COC(=O)C3=CN(Cc4ccccc4)S(=O)(=O)N=C3C)n2)cc1	1090

Structure (SMILES)	RP-LC retention time [s]
CCCN1CCN(C(=O)CSCc2nc3cccnc3n2C2CCCCC2)CC1	638
N[C@H]1C[C@@H]1c1ccccc1	578
COc1ccc(-c2ccnc3nc(C4CC4)nn23)cc1	805
O=C(Nc1cccnc1)c1ccc(S(=O)(=O)NC2CC2)cc1	552
Cc1nn(-c2ccc(C(=O)NCCCN3CCCC3=O)cc2)c2c1C(=O)CC(C)(C)C2	670
CN(c1ccccc1)c1nc(=O)n(CC(=O)Nc2ccc3c(c2)OCCO3)c2ccccc12	785
COC(=O)c1ccc(NC(=O)c2c(O)c3cccnc3n(-c3ccc(F)cc3)c2=O)cc1	1210
CC(C)(Oc1ccc(Cl)cc1)C(=O)Nc1ccc(-c2cn3cccnc3n2)cc1	794
O=C1N(c2ccc(F)cc2)c2ncccc2S(=O)(=O)N1Cc1cccc(F)c1	1030
O=C1NC(C(=O)NCc2cccs2)Cn2cccc21 (centres undefined)	620
CC(C)OCCCN1C(=O)CN(C2CCCCC2)C(=O)C1c1cccs1 (centres undefined)	991
CSc1ccc(CNC(=O)C2CCN(c3nnc(-c4ccccc4)o3)CC2)cc1	846
CCc1ccccc1NC(=O)NCC(c1cccnc1)c1c[nH]c2ccccc12 (centres undefined)	669
CCCN(CCC)S(=O)(=O)c1ccc(C(=O)Nc2nc(-c3ccc(OC)cc3)c(C)s2)cc1	1330
COc1ccc(C(=O)N2CCC3(CC2)NC(=O)c2ccc(F)cc2N3C)c(OC)c1	715
O=C(Cn1c(=O)cc(-c2nc(-c3ccccc3)no2)c2ccccc21)N1CCCC1	1000
Cc1ccc(-c2cc3n(n2)CCCN(C(=O)c2ccncc2)C3)cc1	689
CCC(=O)N1CCc2cc(-c3ccc(C(=O)NCCN4CCN(CC)CC4)cc3)ccc21	604
Cc1scc2nc(C3CCC3)nc(N3CCC(C(=O)N4CCN(c5ccc(F)cc5)CC4)CC3)c12	810
CC1CCN(C(=O)c2ccc(OCC3CCCN(C(=O)c4ccc(C#N)cc4)C3)cc2)CC1 (centres undefined)	956
